Patent US20120040951A1, “HETEROARYL COMPOUNDS USEFUL AS RAF KINASE INHIBITORS” (priority 2008, published 2012)

Tested on: phospho-ERK in melanoma derived WM-266-4 cells
Assay: Mechanistic cellular assay for Raf kinase activity (phospho-ERK, Bio-Plex)
Format: cell-based
Conditions: Homo sapiens, treated 1-2 hr at 37° C., serum free medium, read-out: pERK EC50
Text: (2) Mechanistic Cellular Assay for Raf Kinase Activity
The following method was utilized for quantifying the amount of phospho-ERK in melanoma derived WM-266-4 cells (one allele each of wild type BRaf and mutant BRaf (V600D) as an indicator of Raf kinase activity in cells treated with various kinase inhibitors.
(1) Detached adhered WM-266-4 cells from flask using 0.25% Trypsin. Resuspended cells in growth media (90% RPMI 1640, 10% FBS) and determine cell density.
(2) Seeded cells @ 10,000 cells/well in 96-well (flat bottom) tissue culture plates (36,000 cells/cm^2). Added growth media to a final volume of 200 uL/well and incubated overnight at 37° C.
(1) Prepared compound dilutions (1000× in DMSO) as follows. Starting with a stock of 5 mM compound in DMSO, diluted serially 3-fold in DMSO for a total of eight concentrations (5 mM, 1.67 mM, 0.556 mM, 0.185 mM, 0.062 mM, 0.021 mM, 0.007 mM, 0.002 mM).
(2) Prepared compound-containing media by adding 1 mL treatment media (100% RPMI 1640 without FBS) to 1 μL of compound dilution (from step 3).
(3) Removed plates (from step 2) from incubator. Aspirated media and replace with 150 μL compound-containing media. Incubate for 1-2 hr at 37° C.
(4) Removed plates (from step 5) from incubator and treated each as follows: aspirated compound-containing media and replaced with 300 μL ice-cold 1×PBS, aspirated PBS and replaced with 45 μL lysis buffer (Biorad Bio-Plex lysis buffer containing 0.4% v/v lysis buff. Factor 1, 0.2% v/v lysis buff. Factor 2, and PMSF to 2 mM final concentration), and then placed plate on ice until all plates were treated.
(5) After all plates were processed (step 6), placed plates on an orbital shaker and shook at room temperature for at least 15 min.
(6) Finally, removed plates from shaker, and transfered 40 μL/well of lysate from each to new corresponding 96-well V-bottom plates. At this point, samples may be frozen and stored @−80 C.°.
(1) Thaw (if necessary) plates (from step 8) and added 40 μL of Phospho-Protein Assay Buffer to each 40 μL lysate for a 1:1 dilution.
(2) Prepared phospho-ERK1,2 Bioplex beads by diluting 1:50 with Bioplex Wash Buffer (mixing 49 μL Wash Buffer with 1 μL of phospho-ERK1,2 Bioplex beads for each sample to be analyzed). Protected from light by wrapping tube in aluminum foil and kept at room temperature.
(3) Prepared Filter Plate by adding 100 μL/well Bioplex Wash Buffer and removed by vacuum filtration.
(4) Add 50 μL of bead solution (from step 10) to each well of a prepared Filter Plate (from step 11) and vacuum filter. Wash/filter 2× with 100 μL/well Wash Buffer.
(5) Added 50 μL of each lysate to appropriate well of the Filter Plate (from step 12). For this and all subsequent plate incubation steps, placed plate on an inverted plate cover (reduces background), and wrapped in aluminum foil (to protect from light). Shook overnight at room temperature. Included positive (control lysate) and negative (lysis buffer) controls.
(1) Prepared detection antibody (phospho-ERK1,2 Ab) by diluting 1:25 with Detection Antibody Dilution Buffer Buffer (mixing 24 μL Detection Antibody Dilution Buffer with 1 μL of phospho-ERK1,2 Ab for each sample to be analyzed).
(2) Removed plate (from step 13) from shaker and vacuum filter. Washed/filter plate 3× with 100 μL/well Wash Buffer. Added 25 μL of diluted antibody to each well. Incubated on shaker at RT for 30-45 min.
(3) Prepared streptavidin-PE by diluting 1:100 with Wash Buffer (mixing 49.5 μL Wash Buffer with 0.5 μL of 100× streptavidin-PE for each sample to be analyzed). Protected from light.
(4) Removed plate (from step 15) from shaker and vacuum filter. Washed/filter plate 3× with 100 μL/well Wash Buffer. Add 50 μL of diluted streptavidin-PE solution (from step 16) to each sample well. Incubated on shaker for 10-20 min.
(5) Removed plate from shaker and vacuum filter. Wash/filter plate 3× with 100 μL/well Bead Resuspension Buffer. After last wash resuspended beads in 125 μL Bead Resuspension Buffer. […]

Row | EC50 | SMILES
1 | 100 to 1000 nM | C[C@@H](NC(=O)c1cnc2n1CCNC2)c1ncc(C(=O)Nc2cc(C(F)(F)F)c(Cl)cn2)s1 [Example 315]
2 | ≤ 100 nM | C[C@@H](NC(=O)c1cc2c(cn1)ncn2C1CN(S(C)(=O)=O)C1)c1cnc(Nc2ccc(C(F)(F)F)cc2)cn1 [Example 345]
3 | ≤ 100 nM | C[C@@H](NC(=O)c1cnc2n1CCC2)c1ncc(C(=O)Nc2cc(C(F)(F)F)c(Cl)cn2)s1 [Example 336]
4 | 1000 to 10000 nM | CC(NC(=O)c1ccc2[nH]ncc2c1)c1ccc(C(=O)Nc2cccc(C(F)(F)F)c2)s1 (centres unmarked) [Example 195]
5 | 100 to 1000 nM | CC(NC(=O)c1cc2c(cn1)ncn2C)c1cnc(Nc2cccc(C(F)(F)F)n2)s1 (centres unmarked) [Example 253]
6 | 1000 to 10000 nM | CCc1nc2cnc(C(=O)NC(C)c3ncc(Nc4ccc(C(F)(F)F)cc4)s3)cn2c1NC(C)(C)CC(C)(C)C (centres unmarked) [Example 306]
7 | 100 to 1000 nM | CCn1cnc2cnc(C(=O)NC(C)c3cnc(Nc4ccc(C(F)(F)F)cc4)cn3)nc21 (centres unmarked) [Example 192]
8 | 100 to 1000 nM | CC(NC(=O)c1cc2c(cn1)ncn2C)c1cnc(Nc2ccc(S(=O)(=O)C(F)(F)F)cc2)s1 (centres unmarked) [Example 250]
9 | 1000 to 10000 nM | CC(NC(=O)c1cc2c(cn1)ncn2C)c1cnc(Nc2ccccc2)s1 (centres unmarked) [Example 247]
10 | ≤ 100 nM | CC(NC(=O)c1cnn2cc(-c3cncnc3)ccc12)c1ncc(C(=O)Nc2cc(C(F)(F)F)c(Cl)cn2)s1 (centres unmarked) [Example 328]
11 | ≤ 100 nM | CC(NC(=O)c1cc2c(cn1)ncn2C)c1cnc(Nc2cccc(C(C)(C)C)c2)s1 (centres unmarked) [Example 257]
12 | ≤ 100 nM | CC(NC(=O)c1cnn2cc(-c3ccc(N4CCOCC4)nc3)ccc12)c1ncc(C(=O)Nc2cc(C(F)(F)F)c(Cl)cn2)s1 (centres unmarked) [Example 323]
13 | 100 to 1000 nM | C[C@@H](NC(=O)c1cnc2n1CC(=O)N2)c1ncc(C(=O)Nc2cc(C(F)(F)F)c(Cl)cn2)s1 [Example 170]
14 | 100 to 1000 nM | CC(NC(=O)c1cc2c(cn1)ncn2C)c1cnc(Nc2ccc(Cl)c(C(F)(F)F)c2)s1 (centres unmarked) [Example 258]
15 | 100 to 1000 nM | CC(NC(=O)c1cc2c(cn1)ncn2CCS(C)(=O)=O)c1cnc(Nc2ccc(C(F)(F)F)cc2)s1 (centres unmarked) [Example 184]
16 | 1000 to 10000 nM | CC(NC(=O)c1cnc2n1CCN(C(=O)OC(C)(C)C)C2)c1cnc(Nc2ccc(C(F)(F)F)cc2)s1 (centres unmarked) [Example 313]
17 | 100 to 1000 nM | CC(NC(=O)c1cc2c(cn1)ncn2C)c1cnc(Nc2ccc(C(C)(C)C(F)(F)F)cc2)s1 (centres unmarked) [Example 272]
18 | 100 to 1000 nM | CCn1cnc2cnc(C(=O)NC(C)c3cnc(Nc4ccc(C(F)(F)F)cn4)cn3)cc21 (centres unmarked) [Example 284]
19 | ≤ 100 nM | C[C@@H](NC(=O)c1cnc2cnccn12)c1ncc(C(=O)Nc2cc(C(F)(F)F)c(Cl)cn2)s1 [Example 312]
20 | 100 to 1000 nM | CC(NC(=O)c1cc2c(cn1)ncn2C)c1cnc(Nc2cccc(C(F)(F)F)c2)s1 (centres unmarked) [Example 178]
21 | ≤ 100 nM | CC(NC(=O)c1cc2c(cn1)ncn2C)c1cnc(Nc2ccc(Cl)c(C(F)(F)F)c2)cn1 (centres unmarked) [Example 232]
22 | 1000 to 10000 nM | CC(NC(=O)c1cc2c(cn1)ncn2C)c1cnc(Nc2cc(C(F)(F)F)c(Cl)cn2)cn1 (centres unmarked) [Example 254]
23 | ≤ 100 nM | CC(NC(=O)c1cc2c(cn1)ncn2C)c1cnc(Nc2ccc(Cl)c(S(=O)(=O)C(F)(F)F)c2)cn1 (centres unmarked) [Example 269]
24 | 1000 to 10000 nM | CC(=N)Nc1nc2cnc(C(=O)NC(C)c3cnc(Nc4ccc(C(F)(F)F)cc4)s3)cc2n1C (centres unmarked) [Example 200]
25 | 100 to 1000 nM | CC(NC(=O)c1cnn2cc(-c3ccc(F)nc3)ccc12)c1ncc(C(=O)Nc2cc(C(F)(F)F)c(Cl)cn2)s1 (centres unmarked) [Example 322]
26 | ≤ 100 nM | C[C@@H](NC(=O)c1cnc2n1CCCN2)c1ncc(C(=O)Nc2cc(C(F)(F)F)c(Cl)cn2)s1 [Example 166]
27 | 1000 to 10000 nM | C[C@H](NC(=O)c1cc2c(cn1)ncn2C)c1cnc(Nc2cnc(C(C)(C)C)nc2)s1 [Example 242]
28 | 100 to 1000 nM | C[C@@H](NC(=O)c1cc2c(cn1)ncn2CCS(C)(=O)=O)c1cnc(Nc2ccc(C(F)(F)F)cc2)cn1 [Example 186]

Continued, compound first:

Row | SMILES | EC50
29 | C[C@@H](NC(=O)c1ccc2c(ccn2C)c1)c1ncc(C(=O)Nc2cc(C(F)(F)F)c(Cl)cn2)s1 [Example 69] | 1000 to 10000 nM
30 | C[C@@H](NC(=O)c1c[nH]cn1)c1ncc(C(=O)Nc2cc(C(F)(F)F)c(Cl)cn2)s1 [Example 142] | 1000 to 10000 nM
31 | C[C@@H](NC(=O)c1cnc(N)s1)c1ncc(C(=O)Nc2cc(C(F)(F)F)c(Cl)cn2)s1 [Example 102] | ≤ 100 nM
32 | CC(NC(=O)c1cc2c(cn1)ncn2C1CC1)c1cnc(Nc2ccc(C(F)(F)F)cc2)s1 (centres unmarked) [Example 19] | ≤ 100 nM
33 | C[C@@H](NC(=O)c1cnc(NCCN2CCCC2)s1)c1ncc(C(=O)Nc2cc(C(F)(F)F)c(Cl)cn2)s1 [Example 105] | 100 to 1000 nM
34 | C[C@@H](NC(=O)c1cnn(C)c1Cl)c1ncc(C(=O)Nc2cc(C(F)(F)F)c(Cl)cn2)s1 [Example 124] | ≤ 100 nM
35 | C[C@@H](NC(=O)c1cncn1-c1ccccc1)c1ncc(C(=O)Nc2cc(C(F)(F)F)c(Cl)cn2)s1 [Example 144] | 100 to 1000 nM
36 | C[C@@H](NC(=O)c1cnc(N)n1C1CC1)c1ncc(C(=O)Nc2cc(C(F)(F)F)c(Cl)cn2)s1 [Example 154] | 100 to 1000 nM
37 | CC(NC(=O)c1cc2c(cn1)ncn2CCN1CCOCC1)c1cnc(Nc2ccc(C(F)(F)F)cc2)s1 (centres unmarked) [Example 8] | ≤ 100 nM
38 | Cc1ncc(C(=O)N[C@H](C)c2ncc(C(=O)Nc3cc(C(F)(F)F)c(Cl)cn3)s2)n1-c1ccccn1 [Example 161] | 100 to 1000 nM
39 | CC(NC(=O)c1cc2c(cn1)ncn2C)c1cnc(Nc2cccc(C3(C)CC3)c2)s1 (centres unmarked) [Example 271] | 100 to 1000 nM
40 | C[C@@H](NC(=O)c1cc2nc[nH]c2cn1)c1ncc(C(=O)Nc2cc(C(F)(F)F)c(Cl)cn2)s1 [Example 39] | ≤ 100 nM
41 | CC(NC(=O)c1cccc(CN2CCOCC2)c1)c1ncc(C(=O)Nc2cc(C(F)(F)F)c(Cl)cn2)s1 (centres unmarked) [Example 46] | 1000 to 10000 nM
42 | Cc1ncc(C(=O)N[C@H](C)c2ncc(C(=O)Nc3cc(C(F)(F)F)c(Cl)cn3)s2)n1C [Example 146] | ≤ 100 nM
43 | CC(NC(=O)c1cc2c(cn1)ncn2CC(C)(C)C)c1cnc(Nc2ccc(C(F)(F)F)cc2)s1 (centres unmarked) [Example 16] | 100 to 1000 nM
44 | CNc1ncc(C(=O)N[C@H](C)c2ncc(C(=O)Nc3cc(C(F)(F)F)c(Cl)cn3)s2)s1 [Example 104] | 100 to 1000 nM
45 | CCn1c(C(=O)N[C@H](C)c2ncc(C(=O)Nc3cc(C(F)(F)F)c(Cl)cn3)s2)cnc1C [Example 151] | ≤ 100 nM
46 | CCn1cncc1C(=O)N[C@H](C)c1ncc(C(=O)Nc2cc(C(F)(F)F)c(Cl)cn2)s1 [Example 145] | 100 to 1000 nM
47 | C[C@@H](NC(=O)c1cn(C)cn1)c1ncc(C(=O)Nc2cc(C(F)(F)F)c(Cl)cn2)s1 [Example 143] | 1000 to 10000 nM
48 | C[C@@H](NC(=O)c1ccc2[nH]cnc2c1)c1ncc(C(=O)Nc2cc(C(F)(F)F)c(Cl)cn2)s1 [Example 53] | 100 to 1000 nM
49 | C[C@@H](NC(=O)c1ccc2c(c1)NC(=O)CO2)c1ncc(C(=O)Nc2cc(C(F)(F)F)c(Cl)cn2)s1 [Example 66] | ≤ 100 nM
50 | CC(NC(=O)c1cccc(-n2ccnc2)c1)c1ncc(C(=O)Nc2cc(C(F)(F)F)c(Cl)cn2)s1 (centres unmarked) [Example 48] | 100 to 1000 nM
51 | CCn1c(C(=O)NC(C)c2ncc(C(=O)Nc3cc(C(F)(F)F)c(Cl)cn3)s2)cnc1C (centres unmarked) [Example 164] | 100 to 1000 nM
52 | CC(NC(=O)c1cc2c(cn1)ncn2C)c1ncc(C(=O)Nc2cc(C(F)(F)F)c(Cl)cn2)s1 (centres unmarked) [Example 40] | ≤ 100 nM
53 | CC(NC(=O)c1cccc(N2CCOCC2)c1)c1ncc(C(=O)Nc2cc(C(F)(F)F)c(Cl)cn2)s1 (centres unmarked) [Example 45] | 1000 to 10000 nM
